Source: patent US20160137639A1, “TRIAZOLE-ISOXAZOLE COMPOUND AND MEDICAL USE THEREOF” (JAPAN TOBACCO INC., priority 2012, published 2016)
Read-outs that look alike come from different tables or passages of the source.

Legend:
[1] = target: T1, mouse RORγ (Mus musculus, UniProt P51450); experiment: Luciferase reporter gene assay of inhibitory effect against RORγ transcriptional activity (GAL4-mRORγ plasmid in CHO cells); format: cell-based
T1 construct: mouse, NM_011281.2 and from Ile251 to Lys516; expressed in transfected cells; host or cells: CHO cells (transient co-transfection with pG5-Luc reporter)
T1 sequence (P51450 251-516): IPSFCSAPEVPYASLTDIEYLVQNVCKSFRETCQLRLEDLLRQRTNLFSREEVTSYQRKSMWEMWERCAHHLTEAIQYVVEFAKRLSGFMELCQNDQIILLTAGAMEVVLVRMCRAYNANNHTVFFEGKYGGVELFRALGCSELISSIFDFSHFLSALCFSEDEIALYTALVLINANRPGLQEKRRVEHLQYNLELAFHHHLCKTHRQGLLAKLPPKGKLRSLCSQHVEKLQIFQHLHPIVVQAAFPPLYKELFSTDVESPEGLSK
Outline: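 CHO cells transiently co-transfected with GAL4-mouse RORγ LBD (Ile251–Lys516) and GAL4-dependent luciferase reporter; eight compound concentrations, 0.1% DMSO, 2 days at 37 °C. Luminescence as %-of-vehicle control; EC50 by curve fit, cytotoxic concentrations excluded.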

[2] = target: T2, human RORγ (Homo sapiens, UniProt P51449); experiment: Luciferase reporter gene assay of inhibitory effect against RORγ transcriptional activity (GAL4-hRORγ plasmid in CHO cells); format: cell-based
T2 construct: human, NM_005060.3 and from Ser253 to Lys518; expressed in transfected cells; host or cells: CHO cells (transient co-transfection with pG5-Luc reporter)
T2 sequence (P51449 253-518): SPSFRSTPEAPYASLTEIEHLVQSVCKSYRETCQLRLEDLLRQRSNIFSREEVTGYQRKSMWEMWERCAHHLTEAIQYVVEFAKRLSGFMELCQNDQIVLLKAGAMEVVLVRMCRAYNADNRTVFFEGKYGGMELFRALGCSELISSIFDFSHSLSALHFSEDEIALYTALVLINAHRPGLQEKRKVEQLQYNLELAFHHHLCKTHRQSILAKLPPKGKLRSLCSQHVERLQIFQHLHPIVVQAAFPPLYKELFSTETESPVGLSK

Row | Structure (SMILES) | EC50 ([1]; read-out: LUC EC50 mRORg) [µM] | EC50 ([2]; read-out: LUC EC50 hRORg) [µM] | EC50 ([1]; read-out: LUC EC50 (μM) mRORg) [µM] | EC50 ([2]; read-out: LUC EC50 (μM) hRORg) [µM]
1 | CC(C)(C)C[C@H]1C[C@@H](c2onc([C@@H](CCC(=O)O)CC(=O)NC3CCC3)c2C2CC2)C1 [Example F-711] | > 3 | > 3 |  | 
2 | Cc1c(Cl)cccc1NC(=O)CCc1nnc(CC[C@H]2CC[C@H](C(F)(F)F)CC2)n1C1CC1 [Example F-250] |  |  | > 3 | > 3
3 | C=CCC(CC(=O)Nc1ccc(C)cc1C)c1nnc(CCCC(C)C)n1C1CC1 (racemic) [Example F-198] |  |  | < 3 | < 3
4 | CCn1c(CCC(=O)NCc2ccccc2)nnc1CCC1CCCCC1 [Example F-45] |  |  | > 3 | > 3
5 | Cc1ccc(NC(=O)[C@H]2C(=O)N(C)C[C@@H]2c2nnc(CCCC(C)(C)C)n2C2CC2)c(C)c1 [Example F-302] |  |  | < 3 | < 3
6 | CC(=O)N1C[C@H](C(=O)Nc2ccc(C)cc2C)[C@@H](c2nnc(C3CC(C(C)C)C3)n2C2CC2)C1 (some centres unmarked) [Example F-298] |  |  | < 3 | < 3
7 | COc1cc(C)ccc1CNC(=O)CCc1nnc(CCC2CCC(F)(F)CC2)n1C1CC1 [Example F-257] |  |  | < 3 | < 3
8 | Cc1ccc(NC(=O)C(C)C(CCO)c2nnc([C@H]3C[C@@H](CC(C)C)C3)n2C2CC2)c(C)c1 (single isomer, unassigned) [Example F-491] |  |  | < 3 | > 3
9 | CC(=O)N1C[C@H](C(=O)Nc2ccc(C)cc2C)[C@@H](c2nnc(-c3cc(CCC(C)C)on3)n2C2CC2)C1 [Example F-632] | < 3 | < 3 |  | 
10 | Cc1ccc(NC(=O)CC(Cc2cc(O)no2)c2nnc([C@H]3C[C@@H](CC(C)C)C3)n2C2CC2)c(C)c1 (mixture of isomers) [Example F-450] |  |  | < 3 | < 3
11 | Cc1cnc(NC(=O)C[C@H](CCC(=O)O)c2noc([C@H]3C[C@@H](CC(C)(C)C)C3)c2C2CC2)c(C)c1 [Example F-681] | < 3 | < 3 |  | 
12 | C=CC[C@@H](CC(=O)Nc1ccc(C)cc1C)c1nnc(CCCC(C)(C)C)n1C1CC1 [Example F-389] |  |  | < 3 | < 3
13 | Cc1c(F)ccc(NC(=O)C[C@H](OCC(F)(F)F)c2nnc(-c3cc(CC(C)C)on3)n2C2CC2)c1C [Example F-634] | < 3 | < 3 |  | 
14 | Cc1c(Cl)cccc1NC(=O)CCc1nnc([C@H]2CC[C@H](C(C)C)CC2)n1C1CC1 [Example F-280] |  |  | < 3 | < 3
15 | CC(C)(C)C[C@H]1C[C@@H](c2onc(CCC(=O)Nc3ccc(Cl)cc3Cl)c2C2CC2)C1 [Example F-720] | < 3 | < 3 |  | 
16 | CC(C)CCc1nnc(CCC(=O)NCc2ccc(C(F)(F)F)cc2)n1C1CC1 [Example F-129] |  |  | > 3 | > 3
17 | COC(C)(C)CCCc1nnc([C@H]2CN(C(C)=O)C[C@@H]2C(=O)Nc2ccc(C)cc2C)n1C1CC1 (racemic) [Example F-290] |  |  | > 3 | > 3
18 | CCn1c(CCC(=O)Nc2ccccc2)nnc1C1Cc2ccccc2C1 [Example F-23] |  |  | > 3 | > 3
19 | CCCCc1nnc(CCC(=O)Nc2cccc(Cl)c2C)n1C1CC1 [Example F-105] |  |  | > 3 | > 3
20 | Cc1ccc(NC(=O)CCc2noc(C3(CCO)CC(CC(C)(C)C)C3)c2C2CC2)c(Cl)c1 (mixture of isomers) [Example F-742] | > 3 | > 3 |  | 
21 | Cc1c(Cl)cccc1NC(=O)CCc1nnc(C2CN(C(=O)C(C)C)C2)n1C1CC1 [Example F-259] |  |  | > 3 | > 3
22 | Cc1c(Cl)cccc1NC(=O)CCc1nnc(CCN2CCCCC2=O)n1C1CC1 [Example F-187] |  |  | > 3 | > 3
